Test results taken from patent publication US20240018110A1, “RADIOLABELED COMPOUNDS TARGETING THE PROSTATE-SPECIFIC MEMBRANE ANTIGEN” (THE UNIVERSITY OF BRITISH COLUMBIA, priority 2020, published 2024).

How the values were obtained:
[1] = tested on: LNCaP xenograft; experiment: Biodistribution of 68Ga-labeled compounds in mice bearing LNCaP xenograft; type: in vivo; details: 1 h p.i.
Method: All chemicals and solvents were obtained from commercial sources, and used without further purification. PSMA-targeted peptides were synthesized using a solid phase approach on an AAPPTec (Louisville, KY) Endeavor 90 peptide synthesizer. Purification of peptides was performed on an Agilent 1260 Infinity II Preparative System equipped with a model 1260 Infinity II preparative binary pump, a model 1260 Infinity variable wavelength detector (set at 220 nm), and a 1290 Infinity II preparative open-bed fraction collector. The HPLC column used was a preparative column (Gemini, NX—C18, 5 μ, 50×30 mm) purchased from Phenomenex. The collected HPLC eluates containing the desired peptide were lyophilized using a Labconco (Kansas City, MO) FreeZone 4.5 Plus freeze-drier. Mass analyses were performed using a Waters LC-MS system with an ESI ion source. C18 Sep-Pak cartridges (1 cm^3, 50 mg) were obtained from Waters (Milford, MA). ^68Ga was eluted from an iThemba Labs (Somerset West, South Africa) generator. Radioactivity of ^68Ga-labeled peptides was measured using a Capintec (Ramsey, NJ) CRC®-25R/W dose calibrator, and the radioactivity of mouse tissues collected from biodistribution studies were counted using a Perkin Elmer (Waltham, MA) Wizard2 2480 automatic gamma counter.

[2] = molecular target: PSMA (Homo sapiens, UniProt Q04609); experiment: In vitro competitive binding assay
PSMA, sequence (Q04609 whole entry): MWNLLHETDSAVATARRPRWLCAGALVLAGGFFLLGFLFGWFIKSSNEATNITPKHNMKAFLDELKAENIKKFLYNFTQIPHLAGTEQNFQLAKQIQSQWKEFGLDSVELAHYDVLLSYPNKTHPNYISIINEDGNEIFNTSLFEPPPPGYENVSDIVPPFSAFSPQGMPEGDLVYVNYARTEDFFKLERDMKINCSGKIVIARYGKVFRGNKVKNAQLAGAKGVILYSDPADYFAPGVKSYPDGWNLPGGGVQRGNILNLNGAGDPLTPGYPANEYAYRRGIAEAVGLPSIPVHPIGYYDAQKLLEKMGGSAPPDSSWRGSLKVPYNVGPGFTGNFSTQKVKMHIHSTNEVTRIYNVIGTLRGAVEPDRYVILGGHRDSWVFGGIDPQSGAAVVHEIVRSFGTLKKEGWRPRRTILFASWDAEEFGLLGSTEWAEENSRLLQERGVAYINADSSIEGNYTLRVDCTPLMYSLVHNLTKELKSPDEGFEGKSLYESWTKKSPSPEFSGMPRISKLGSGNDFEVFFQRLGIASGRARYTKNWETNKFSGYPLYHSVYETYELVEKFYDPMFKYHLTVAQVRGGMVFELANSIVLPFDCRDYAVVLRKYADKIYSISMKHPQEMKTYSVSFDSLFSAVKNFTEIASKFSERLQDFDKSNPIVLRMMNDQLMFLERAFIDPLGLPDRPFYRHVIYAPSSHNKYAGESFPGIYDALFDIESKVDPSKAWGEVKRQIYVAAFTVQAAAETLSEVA

Row | Biodistribution, Adrenal (Avg) [1] [% ID/g] | Biodistribution, Blood (Avg) [1] [% ID/g] | Biodistribution, Bone (Avg) [1] [% ID/g] | Biodistribution, Brain (Avg) [1] [% ID/g] | Biodistribution, Fat (Avg) [1] [% ID/g] | Biodistribution, Heart (Avg) [1] [% ID/g] | Biodistribution, Intestine (Avg) [1] [% ID/g] | Biodistribution, Kidney (Avg) [1] [% ID/g] | Biodistribution, LNCaP tumor (Avg) [1] [% ID/g] | Biodistribution, Liver (Avg) [1] [% ID/g] | Biodistribution, Lungs (Avg) [1] [% ID/g] | Biodistribution, Muscle (Avg) [1] [% ID/g] | Biodistribution, Pancreas (Avg) [1] [% ID/g] | Biodistribution, Salivary gland (Avg) [1] [% ID/g] | Biodistribution, Seminal (Avg) [1] [% ID/g] | Biodistribution, Spleen (Avg) [1] [% ID/g] | Biodistribution, Stomach (Avg) [1] [% ID/g] | Biodistribution, Testes (Avg) [1] [% ID/g] | Biodistribution, Thyroid (Avg) [1] [% ID/g] | Biodistribution, Urine (Avg) [1] [% ID/g] | Compound | other results
1 | 0.65 | 0.98 | 0.14 | 0.03 | 0.27 | 0.27 | 0.79 | 7.33 | 9.12 | 0.35 | 0.70 | 0.14 | 0.15 | 0.34 | 0.13 | 0.24 | 0.09 | 0.23 | 0.29 | 311.63 | O=C(O)CSCC(NC(=O)NC(CNC(=O)CNC(=O)C(Cc1c2ccccc2cc2ccccc12)NC(=O)C1CCC(CNC(=O)CN2CCN(CC(=O)O)CCN(CC(=O)O)CCN(CC(=O)O)CC2)CC1)C(=O)O)C(=O)O.[68Ga] (centres unmarked) [68Ga-CCZ01194] | –
2 | 0.19 | 0.43 | 0.07 | 0.01 | 0.07 | 0.11 | 0.16 | 2.18 | 4.84 | 0.15 | 0.32 | 0.07 | 0.08 | 0.12 | 0.47 | 0.12 | 0.03 | 0.14 | 0.13 | 384.68 | O=C(O)CCCC(NC(=O)NC(CNC(=O)CNC(=O)C(Cc1c2ccccc2cc2ccccc12)NC(=O)C1CCC(CNC(=O)CN2CCN(CC(=O)O)CCN(CC(=O)O)CCN(CC(=O)O)CC2)CC1)C(=O)O)C(=O)O.[68Ga] (centres unmarked) [68Ga-CCZ01198] | –
3 | – | – | – | – | – | – | – | – | – | – | – | – | – | – | – | – | – | – | – | – | O=C(O)CC[C@H](NC(=O)N[C@@H](C[C@@H]1C[C@H]1CNC(=O)[C@H](Cc1c2ccccc2cc2ccccc12)NC(=O)[C@H]1CC[C@H](CNC(=O)CN2CCN(CC(=O)O)CCN(CC(=O)O)CCN(CC(=O)O)CC2)CC1)C(=O)O)C(=O)O [ADZ-4-101] | Ki [2]: 2.42 nM
4 | – | – | – | – | – | – | – | – | – | – | – | – | – | – | – | – | – | – | – | – | O=C(O)CCC[C@H](OC(=O)N[C@@H](CCCCNC(=O)[C@H](Cc1c2ccccc2cc2ccccc12)NC(=O)[C@H]1CC[C@H](CNC(=O)CN2CCN(CC(=O)O)CCN(CC(=O)O)CCN(CC(=O)O)CC2)CC1)C(=O)O)C(=O)O [AR-2-050-1, DOTA-PSMA-Aad-carbamate] | Ki [2]: 8.99 nM
5 | – | – | – | – | – | – | – | – | – | – | – | – | – | – | – | – | – | – | – | – | O=C(O)CCC[C@@H](OC(=O)N[C@@H](CCCCNC(=O)[C@H](Cc1c2ccccc2cc2ccccc12)NC(=O)[C@H]1CC[C@H](CNC(=O)CN2CCN(CC(=O)O)CCN(CC(=O)O)CCN(CC(=O)O)CC2)CC1)C(=O)O)C(=O)O [AR-2-050-2, DOTA-PSMA-Aad-carbamate] | Ki [2]: 240 nM
6 | 1.22 | 2.42 | 0.34 | 0.05 | 0.56 | 0.85 | 1.36 | 27.16 | 11.86 | 1.31 | 1.93 | 0.49 | 0.34 | 1.05 | – | 0.61 | 0.22 | 0.79 | – | 237.55 | O=C(O)CCC[C@H](OC(=O)N[C@@H](CCCCNC(=O)[C@H](Cc1c2ccccc2cc2ccccc12)NC(=O)[C@H]1CC[C@H](CNC(=O)CCc2ccc(O)c(CN(CCN(CC(=O)O)Cc3cc(CCC(=O)O)ccc3O)CC(=O)O)c2)CC1)C(=O)O)C(=O)O.[68Ga] [^68Ga-AR-113-1] | Biodistribution, Lacrimal (Avg) [1]: 0.13 % ID/g
7 | 0.29 | 0.72 | 0.13 | 0.02 | 0.16 | 0.57 | 0.08 | 2.20 | 0.89 | 0.23 | 0.21 | 0.23 | 0.16 | 0.40 | 6.65 | 0.34 | 0.14 | 0.17 | 2.49 | 439.81 | O=C(O)CSCC(NC(=O)NC(Cc1cn(CCNC(=O)C(Cc2c3ccccc3cc3ccccc23)NC(=O)C2CCC(CNC(=O)CN3CCN(CC(=O)O)CCN(CC(=O)O)CCN(CC(=O)O)CC3)CC2)nn1)C(=O)O)C(=O)O.[68Ga] (centres unmarked) [^68Ga-CCZ01186] | –
8 | 0.98 | 3.91 | 0.23 | 0.07 | 0.62 | 1.03 | 0.56 | 4.02 | 1.43 | 0.81 | 2.15 | 0.41 | 0.38 | 1.56 | 0.85 | 0.61 | 0.19 | 0.82 | 0.67 | 367.12 | O=C(O)CSCC(NC(=O)NC(Cc1ccc(NC(=O)C(Cc2c3ccccc3cc3ccccc23)NC(=O)C2CCC(CNC(=O)CN3CCN(CC(=O)O)CCN(CC(=O)O)CCN(CC(=O)O)CC3)CC2)cc1)C(=O)O)C(=O)O.[68Ga] (centres unmarked) [^68Ga-CCZ01188] | –
9 | 0.36 | 0.58 | 0.15 | 0.02 | 0.12 | 0.18 | 0.40 | 4.10 | 14.08 | 0.27 | 0.43 | 0.15 | 0.22 | 0.27 | 11.24 | 0.23 | 0.07 | 0.51 | 0.16 | 343.93 | O=C(O)CCCC(NC(=O)NC(COCCNC(=O)C(Cc1c2ccccc2cc2ccccc12)NC(=O)C1CCC(CNC(=O)CN2CCN(CC(=O)O)CCN(CC(=O)O)CCN(CC(=O)O)CC2)CC1)C(=O)O)C(=O)O.[68Ga] (centres unmarked) [^68Ga-CCZ02011] | Biodistribution, Lacrimal (Avg) [1]: 0.33 % ID/g
10 | 0.53 | 0.67 | 0.13 | 0.03 | 0.17 | 0.18 | 0.25 | 6.91 | 18.88 | 0.21 | 0.58 | 0.10 | 0.13 | 0.22 | 0.27 | 0.24 | 0.07 | 0.22 | 0.20 | 613.72 | O=C(O)CCCC(NC(=O)NC(CCCONC(=O)C(Cc1c2ccccc2cc2ccccc12)NC(=O)C1CCC(CNC(=O)CN2CCN(CC(=O)O)CCN(CC(=O)O)CCN(CC(=O)O)CC2)CC1)C(=O)O)C(=O)O.[68Ga] (centres unmarked) [^68Ga-CCZ02018] | –
